Data as given in patent publication US20260207637A1, “MODULATOR FOR PROMOTING BINDING OF BUTYROPHILIN 3A1/2A1” (priority 2023, published 2026).
Like-named read-outs stand apart in the source and are kept apart here.

Legend:
MIApaca/FG2 cells = assay: EC50 assay of small molecule activated γδ T cells to kill MIApaca/FG2 tumor cells (3-fold dilution protocol); assay type: cell-based; conditions: 0.05-100 nM, read-out: MIApaca killing (EC50)
Method: γδT cells and MIApaca/FG2 tumor cell lines were expanded and cultured in vitro. MIApaca/FG2 cells were digested, and the cells were counted and resuspended in DMEM complete medium, the density of the cell suspension was adjusted and added into a 96-well plate at 5×10^3 cells/100 […]/well for overnight incubation. On the next day, the test compound and the control compound were diluted at a 3-fold ratio with DMSO, and 4 μL of the diluted compound was added to 96 μL of culture medium for 25-fold dilution. 5 μL of 25-fold diluted compound was transferred to the corresponding well which had been plated with tumor cells, and the actual detection concentration was in the range of 0.05-100 nM. γδT cells were resuspended in γδT complete medium, and the density of the cell suspension was adjusted according to the effector-target ratio of E:T=2:1, and then the cell was added to the corresponding well at 1×10^4 cells/100 μL/well. After co-culture at 37° C., 5% CO2 for 20 hours, the cells were centrifuged. The supernatant was removed, and 50 μL of cell lysate containing fluorescein substrate was added to each well. After standing for 18 minutes in the dark, the signal of chemiluminescence was detected. The EC50 value was calculated by four-parameter fitting, with the corresponding signal value of the well with only tumor cells as the minimum killing value, and the corresponding value of the well without tumor cells as the maximum killing value. The killing data of MIApaca/FG2 cells is as follows: […]

[1] = Stability experiment of compounds in human liver microsomes; assay type: in vitro ADME; conditions: NADPH, 37° C.
Method: Compounds were prepared as a 10 mM stock solution with DMSO and then diluted with 80% acetonitrile-water to a 100 μM working solution for later use. Human liver microsomes were obtained from BIOIVT.
(1) The liver microsomes taken out from the refrigerator were placed in a 37° C. water bath thermostatic oscillator, pre-incubated for 5 min, and thawed for later use.
(2) A certain amount of NADPH was weighed and added to an appropriate amount of magnesium chloride solution to dissolve into a 2 mM solution for later use.
(3) A mixed solution of the warm incubation system (containing no β-NADPH) was prepared according to the proportions in the “composition of the experimental warm incubation system” above and dispensed at 165 μL/tubes (45 μL/tube for the negative control group and 120 μL/tube for the positive control group).
(4) For the sample at 0 min: 200 μL of internal standard working precipitant was added and then 30 μL of NADPH solution was added.
(5) For other samples: 135 μL NADPH solution was added to initiate the reaction (45 μL magnesium chloride solution was added for the negative control group), and incubated in a 37° C. water bath for 5, 15, 30, and 60 min (incubated in a 37° C. water bath for 60 min for the negative control group), then 60 μL was sampled and added to 200 µL of precipitant containing internal standard.
(6) For the positive control group: 90 L NADPH solution was added to initiate the reaction, and incubated in a 37° C. water bath for 5, 15 min, then 60 μL was sampled and added to 200 μL of precipitant containing internal standard.
(7) For neat sample: 297 μL of water was pipetted into a tube, 1000 μL of internal standard working solution was added, and 3 μL of test compound working solution was added.
(8) All samples were vortexed and centrifuged.
(9) 150 μL of the supernatant was sampled and added to 150 μL of water, mixed uniformly by vortex, and analyzed by LC-MS/MS. The half-life stability data of human liver microsomes is as follows: […]

Huh7/FG2 cells = assay: EC50 assay of small molecule activated γδ T cells to kill Huh7/FG2 tumor cells; assay type: cell-based; conditions: γδT cells + Huh7/FG2, E:T=5:1, co-culture 20 hours, 0.05-100 nM, read-out: Huh7 killing (EC50)
Method: γδT cells and Huh7/FG2 tumor cell lines were expanded and cultured in vitro. The Huh7/FG2 cells were digested, and the cells were counted and resuspended in DMEM complete medium, the density of the cell suspension was adjusted and added into a 96-well plate at 5×10^3 cells/100 μL/well for overnight incubation. On the next day, the test compound and the control compound were diluted at a 3-fold ratio with DMSO, and 4 μL of the diluted compound was added to 96 μL of culture medium for 25-fold dilution. 5 μL of 25-fold diluted compound was transferred to the corresponding well which had been plated with tumor cells, and the actual detection concentration was in the range of 0.05-100 nM. γδT cells were resuspended in γδT complete medium, and the density of the cell suspension was adjusted according to the effector-target ratio of E:T=5:1, and then the cell was added to the corresponding well at 2.5×10^4 cells/100 μL/well. After co-culture at 37° C., 5% CO2 for 20 hours, the cells were centrifuged. […] After standing for 18 minutes in the dark, the signal of chemiluminescence was detected. The EC50 value was calculated by four-parameter fitting, with the corresponding signal value of the well with only tumor cells as the minimum killing value, and the corresponding value of the well without tumor cells as the maximum killing value.

[2] = Stability experiment of compounds in human whole blood; assay type: in vitro ADME; conditions: 37° C., 0-4 h
Method: • (1) An appropriate amount of blank whole blood was added into an EP tube containing sodium heparin, then added the working solution of the test substance to a final concentration of 1 μM, and mixed by vortex; • (2) The sample was placed in a water bath at 37° C. with two parallel experiments; for one experiment, the time points were 0 h, 0.5 h, 1 h, 2 h, and 4 h; another experiment was performed to obtain the absolute zero point, which was compared with the 0 h point. • (3) An appropriate amount of sample was taken out from the incubation system, to which 300 μL of internal standard precipitant was added for protein precipitation; (4) all samples were centrifuged at 6° C. for 10 min (15700×g). • (5) 150 μL of the supernatant was taken out, to which 150 μL of water was added, which was mixed by vortex, and analyzed by LC-MS/MS. The stability data of compounds in human whole blood is as follows: […]

Structure (SMILES)	EC50 (MIApaca/FG2 cells; γδT cells + MIApaca/FG2, E:T=2:1, co-culture 20 hours) [pM]	T1/2 in human liver microsomes [1] [min]	EC50 (Huh7/FG2 cells) [pM]	T1/2 in human whole blood ([2]; 1 μM) [min]	EC50 (MIApaca/FG2 cells; Homo sapiens, MIA PaCa-2, γδT cells + MIApaca/FG2, E:T=2:1, co-culture 20 hours) [pM]	half-life ([1]; read-out: T1/2 in human liver microsomes) [min]	EC50 (Huh7/FG2 cells; Homo sapiens, Huh-7) [pM]	half-life at 1 μM ([2]; whole blood (sodium heparin), read-out: T1/2 in human whole blood (converted)) [min]
C/C(=C\CC[P@@](=O)(N[C@@H](C)C(=O)O[C@@H]1CCOC1)Oc1ccccc1)CO [Compound 19, (R)-tetrahydrofuran-3-yl ((S)-((R)-5-hydroxy-4-methylpent-3-en-1-yl)(phenoxy)phosphoryl)-L-alaninate]	280	47.8	420	>480	–	–	–	–
C/C(=C\CCP(=O)(N[C@@H](C)C(=O)OC(C)C)Oc1ccccc1)CO (stereo partly drawn) [Control compound 1, Isopropyl (((E)-5-hydroxy-4-methylpent-3-en-1-yl)(phenoxy)phosphoryl)-L-alaninate, reference compound]	–	–	–	–	530	8.7	1680	> 480
